Patent US8431596B2 (Cancer Research Technology Limited, priority 2007, dated 2013)
pIC50: −log10 of the molar value.

target: T1, AXL (human catalytic domain) (Homo sapiens, UniProt P30530); experiment: AXL (human catalytic domain) Enzyme Activity Assay (IMAP fluorescence polarisation); format: biochemical; details: further data set (WW-001 through WW-169, XX-001 through XX-469, YY-001 through YY-016, ZZ-001 through ZZ-003); 150 μM ATP
T1 construct: purchased Upstate Ltd. 14-512
T1 sequence (P30530 473-894): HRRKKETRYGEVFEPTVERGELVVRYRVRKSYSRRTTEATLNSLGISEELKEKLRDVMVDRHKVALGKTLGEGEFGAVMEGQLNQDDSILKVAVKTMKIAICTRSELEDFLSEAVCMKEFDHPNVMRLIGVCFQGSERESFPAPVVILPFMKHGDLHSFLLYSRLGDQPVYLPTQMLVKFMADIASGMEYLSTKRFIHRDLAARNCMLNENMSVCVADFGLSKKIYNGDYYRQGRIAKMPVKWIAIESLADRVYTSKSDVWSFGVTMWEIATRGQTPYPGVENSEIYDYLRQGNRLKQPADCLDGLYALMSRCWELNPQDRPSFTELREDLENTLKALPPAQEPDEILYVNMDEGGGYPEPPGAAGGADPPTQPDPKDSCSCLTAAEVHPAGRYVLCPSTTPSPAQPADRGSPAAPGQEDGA
Method in brief: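 IMAP FP readout (Ex485/Em535, after overnight binding) measured inhibition of the human AXL catalytic domain (aa473-894, 15 nM final) acting on 100 nM 5FAM-CSK-tide at 150 μM ATP, equal to KM. Reactions ran 60 min at room temperature in pH 7.0 HEPES buffer; IC50 from 10-point curves.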

pIC50, ≥ 7.00:
Clc1ccc(-c2cccc3nc(Nc4ccc(OCCN5CCCC5)cc4)nn23)cc1 [XX-211]

pIC50, 5.00 to 6.00:
Cc1ccccc1-c1cccc2nc(Nc3ccc(OCCN4CCCC4)cc3)nn12 [XX-212]
c1cc(-c2ccncc2)n2nc(Nc3ccc(OCCN4CCCC4)cc3)nc2c1 [XX-219]
O=C(Nc1ccc(-c2cccc3nc(Nc4ccc(OCCN5CCCC5)cc4)nn23)cc1)c1cccc(Cl)c1 [XX-220]
O=C(Nc1ccc(-c2cccc3nc(Nc4ccc(OCCN5CCCC5)cc4)nn23)cc1)c1ccccc1 [XX-221, N-(4-{2-[4-(2-Pyrrolidin-1-yl-ethoxy)-phenylamino]-[1,2,4]triazolo[1,5-a]pyridin-5-yl}-phenyl)-benzamide]
O=C(Cc1cccc(Cl)c1)Nc1ccc(-c2cccc3nc(Nc4ccc(OCCN5CCCC5)cc4)nn23)cc1 [XX-222]
Clc1cccc(CNc2ccc(-c3cccc4nc(Nc5ccc(OCCN6CCCC6)cc5)nn34)cc2)c1 [XX-223, {5-[4-(3-Chloro-benzylamino)-phenyl]-[1,2,4]triazolo[1,5-a]pyridin-2-yl}-[4-(2-pyrrolidin-1-yl-ethoxy)-phenyl]-amine]
O=C(Nc1ccc(C(F)(F)F)cc1)Nc1cccc(-c2cccc3nc(Nc4ccc(OCCN5CCCC5)cc4)nn23)c1 [XX-225]
O=C(Cc1cccc(Cl)c1)Nc1cccc(-c2cccc3nc(Nc4ccc(OCCN5CCCC5)cc4)nn23)c1 [XX-227, 2-(3-Chloro-phenyl)-N-(3-{2-[4-(2-pyrrolidin-1-yl-ethoxy)-phenylamino]-[1,2,4]triazolo[1,5-a]pyridin-5-yl}-phenyl)-acetamide]
CC(C(=O)Nc1cccc(-c2cccc3nc(Nc4ccc(OCCN5CCCC5)cc4)nn23)c1)c1cccc(Cl)c1 (stereo not drawn) [XX-228]
COc1ccccc1NC(=O)Nc1cccc(-c2cccc3nc(Nc4ccc(OCCN5CCCC5)cc4)nn23)c1 [XX-229]
COc1cccc(NC(=O)Nc2cccc(-c3cccc4nc(Nc5ccc(OCCN6CCCC6)cc5)nn34)c2)c1 [XX-230]

pIC50, 6.00 to 7.00:
CC(=O)Nc1ccc(-c2cccc3nc(Nc4ccc(OCCN5CCCC5)cc4)nn23)cc1 [XX-205]
CN(C)c1ccc(-c2cccc3nc(Nc4ccc(OCCN5CCCC5)cc4)nn23)cc1 [XX-206]
COc1c(C)cc(-c2cccc3nc(Nc4ccc(OCCN5CCCC5)cc4)nn23)cc1C [XX-207]
c1cc(-c2ccc3nonc3c2)n2nc(Nc3ccc(OCCN4CCCC4)cc3)nc2c1 [XX-208]
c1cc(-c2ccc3c(c2)OCCCO3)n2nc(Nc3ccc(OCCN4CCCC4)cc3)nc2c1 [XX-209]
Clc1cccc(-c2cccc3nc(Nc4ccc(OCCN5CCCC5)cc4)nn23)c1 [XX-210]
Cc1cccc(-c2cccc3nc(Nc4ccc(OCCN5CCCC5)cc4)nn23)c1 [XX-213]
Cc1ccc2sc(-c3cccc4nc(Nc5ccc(OCCN6CCCC6)cc5)nn34)cc2c1 [XX-214]
CS(=O)(=O)c1ccc(-c2cccc3nc(Nc4ccc(OCCN5CCCC5)cc4)nn23)cc1 [XX-215, [5-(4-Methanesulfonyl-phenyl)-[1,2,4]triazolo[1,5-a]pyridin-2-yl]-[4-(2-pyrrolidin-1-yl-ethoxy)-phenyl]-amine]
c1ccc(-c2ccc(-c3cccc4nc(Nc5ccc(OCCN6CCCC6)cc5)nn34)cc2)cc1 [XX-216]
COCc1ccc(-c2cccc3nc(Nc4ccc(OCCN5CCCC5)cc4)nn23)cc1 [XX-217]
FC(F)(F)c1ccc(-c2cccc3nc(Nc4ccc(OCCN5CCCC5)cc4)nn23)cc1 [XX-218]
CS(=O)(=O)Nc1cccc(-c2cccc3nc(Nc4ccc(OCCN5CCCC5)cc4)nn23)c1 [XX-224]
c1cc(-c2ccc3c(c2)OCCO3)n2nc(Nc3ccc(SCCN4CCCC4)cc3)nc2c1 [XX-226]
COc1ccc(NC(=O)Nc2cccc(-c3cccc4nc(Nc5ccc(OCCN6CCCC6)cc5)nn34)c2)cc1 [XX-231]
